Data reported in PMC314469, “Protein Interaction Networks by Proteome Peptide Scanning” (PLoS Biology, 2004).

System: Myo5 SH3 domain
Experiment: SPOT analysis of cellulose-bound peptides (WISE), Myo5 SH3 domain (Dataset S4)
Format: binding, Saccharomyces cerevisiae
Conditions: SPOT analysis of cellulose-bound peptides probed with Myo5 SH3 domain; normalized value

## SLTSLPPPPPPQFS
  The normalized value in BLU units (SPOT analysis, Myo5 SH3): 7261.1 BLU
